Test: gradient 5% acetonitrile 3 min, to 50% in 2 min, to 85% in 15 min, held 3 min, 100 µL/min
Conditions: column: Zorbax Extend-C18 2.1 x 50 mm; eluents: water / acetonitrile, 0.1% formic acid
Method in brief: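 Pure standards were analyzed in mixtures of ~100 molecules using HPLC coupled to a quadrupole time-of-flight mass spectrometer, in both positive and negative ionization mode. Separation used a Zorbax Extend-C18 column (2.1 × 50 mm, 1.8 μm) at 100 μL/min, with water and acetonitrile each containing 0.1% formic acid. Dead and dwell volumes were 40 μL and 900 μL, and data were collected over 3 months. Retention time was read from computationally picked adduct peaks, each inspected manually.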

| RP-LC retention time | Structure (SMILES) |
| --- | --- |
| 880 s | O=C(c1ccoc1)N1CCC(Oc2nccnc2N2CCc3ccccc32)C1 (centres undefined) |
| 609 s | Cc1cccc(CN2CCN(CC(=O)NC3CCN(Cc4ccccc4)CC3)C(=O)C2=O)c1 |
| 761 s | COc1ccc(-c2csc(Nc3ccccn3)n2)cc1OC |
| 894 s | Cc1nc(-c2noc(-c3ccccc3)n2)cn1CC(=O)N1CCN(c2ccccc2F)CC1 |
| 920 s | CC(C)(C)CC(C)(C)NC(=O)C1CCN(C(=O)c2ccccc2F)CC1 |
| 931 s | O=C(NCCc1cccs1)c1ccc2ccnc(N3CCN(c4ccc(Cl)cc4)CC3)c2c1 |
| 698 s | Cc1c(C2CCN(C(=O)Cc3ccc(F)cc3)CC2)noc1N |
| 656 s | CCCNC(=O)C1CCCN(c2ccc(SCC(=O)Nc3cc(C)ccc3C)nn2)C1 (centres undefined) |
| 810 s | Cc1scc2nc(C3CCC3)nc(N3CCC(C(=O)N4CCN(c5ccc(F)cc5)CC4)CC3)c12 |
| 757 s | Cc1nc(C)c(C(=O)NCC23CCC=C2N(CC2CC2)C(=O)CC3)s1 (centres undefined) |
| 625 s | O=C(Nc1cccc(C(F)(F)F)c1)C1CCN(c2cc(-n3ccnc3)ncn2)CC1 |
| 865 s | CC(C(=O)Nc1c(F)cccc1F)C1CCN(C(=O)Nc2ccc(Cl)cc2)CC1 (centres undefined) |
| 762 s | O=C(c1ccccc1F)N1CCN(S(=O)(=O)c2cc3c4c(c2)CCC(=O)N4CCC3)CC1 |
| 696 s | CCc1nc2ccccc2n1CC(O)COc1ccc(C)c(C)c1 (centres undefined) |
| 828 s | CCOC(=O)c1nnc2c(-c3ccccc3)c(C)nn2c1N |
| 740 s | O=S(=O)(NCc1nnnn1C1CCCCC1)c1cccs1 |
| 925 s | CCOC(=O)c1cn(Cc2cccc(C)c2)c2nc(C)ccc2c1=O |
| 790 s | Cc1c(C(=O)N(C)C)cnn1-c1ccc(-c2nc(C3CC3)no2)cn1 |
| 706 s | Cc1cccc(CNC(=O)C2(C)Cn3cnc(C(=O)NC4CC4)c3C(=O)N2C2CC2)c1 (centres undefined) |
| 961 s | O=C(Nc1cccc(Cl)c1)N1CCC(n2c(C(F)(F)F)nc3cccnc32)CC1 |
| 631 s | CC(C)Cn1nc2n(c1=O)CCN(S(=O)(=O)c1ccc(C(C)(C)C)cc1)CC2 |
| 822 s | CCC(C)Nc1nc(-c2ccc(Cl)cc2)nc2ccccc12 (centres undefined) |

| RP-LC retention time | Structure (SMILES) |
| --- | --- |
| 883 s | CC1(C)C(=O)Nc2ccc(S(=O)(=O)N3CCC(c4noc(-c5ccccc5)n4)C3)cc21 (centres undefined) |
| 706 s | CCOC(=O)c1coc(NC(=O)Nc2cccs2)n1 |
| 805 s | Cc1nc(-c2cn(-c3cccc(F)c3)nn2)no1 |
| 850 s | CNC(=O)N1CCCC(c2cccc(C(=O)NCc3cccc(C(F)(F)F)c3)c2)C1 (centres undefined) |
| 1040 s | Cc1occc1-c1nnc2sc(COc3ccc(Br)cc3)nn12 |
| 588 s | CCn1cnc(S(=O)(=O)N2CCC(C(=O)Nc3ccc(C)c(N(C)C)c3)CC2)c1 |
| 659 s | CCCNC(=O)C1CC(=O)N(c2ccc3c(c2)CCN3C(=O)C2CC2)C1 (centres undefined) |
| 589 s | CN1C(=O)NC2(CCN(S(=O)(=O)c3cccnc3)CC2)C1=O |
| 750 s | O=C(Nc1cccc(-c2ccc(N3CCOCC3)nn2)c1)Nc1ccccc1C(F)(F)F |
| 854 s | O=C(COc1ccc(Cl)cc1)Nc1cccc2c1C(=O)NC2=O |
| 944 s | COc1ccc(NC(=O)c2sc(-c3cn(C(C)C)c4ncccc34)nc2C)cc1OC |
| 791 s | Cc1ccc(F)cc1NS(=O)(=O)c1cc(-c2[nH]ncc2C(=O)N2CCCCC2)oc1C |
| 578 s | Cc1ccc(NC(=O)CCNc2cnc3cnccn23)cc1F |
| 534 s | Nc1nc(F)nc2c1ncn2[C@@H]1O[C@H](COP(=O)(O)O)[C@@H](O)[C@@H]1O |
| 661 s | COc1cc(-c2nc3ccc(C)cn3c2Nc2ccccc2C)ccc1O |
| 604 s | Cc1ccc(CSc2nccc3c2ccn3CC(=O)N2CCN(c3ccccn3)CC2)cc1 |
| 853 s | O=C(c1ccsc1)N(CCc1cccs1)C1CC1 |
| 1230 s | Cc1ccc(C2Cn3nnc(-c4nc(-c5ccc(F)c(F)c5)no4)c3CO2)c(C)c1 (centres undefined) |
| 725 s | COc1ccc(CSc2nccc3c2ccn3CC(=O)NCc2ccc(C)o2)cc1 |
| 708 s | CC(=O)N1CCc2sc(C(=O)NC(C)c3ccccc3)cc2C1 (centres undefined) |
| 1230 s | O=C(NCc1ccccc1Cl)c1c(O)c2cccnc2n(-c2cccc(F)c2)c1=O |
| 751 s | CCN1C(=O)CCc2cc(NS(=O)(=O)c3ccccc3Cl)ccc21 |

| RP-LC retention time | Structure (SMILES) |
| --- | --- |
| 959 s | Cc1ccccc1CNC(=O)C1(C)CCCN(C(=O)Nc2ccccc2C)C1 (centres undefined) |
| 1020 s | O=C(NCCc1c[nH]c2ccccc12)c1cc2occc2c(Nc2ccc(F)cc2)n1 |
| 641 s | CCCCN1CCN(C(=O)CN2CCN(Cc3ccc(F)cc3Cl)C2=O)CC1 |
| 829 s | O=C(c1cc2ccccc2o1)N1CCN(C(=O)C2COc3ccccc3O2)CC1 (centres undefined) |
| 643 s | CCOC(=O)CC1(NC(=O)N2CCCn3nc(-c4cccnc4)cc3C2)CCCCC1 |
| 691 s | O=C(Nc1ccccc1)N1CCC(N2CCN(Cc3cccc(F)c3)C(=O)C2=O)CC1 |
| 664 s | Cc1ccc(C)c(NC(=O)NCCn2nnc3cc(C(=O)N(C)C)ccc32)c1 |
| 1080 s | CC(C)n1c(=O)oc2cc(-c3noc(-c4cccc5[nH]ccc45)n3)ccc21 |
| 788 s | COc1cccc2cc(C(=O)N3CC(c4nc(C5CC5)no4)C3)oc12 |
| 950 s | CCOC(=O)C1=C(C)NC2=C(C(=O)c3ccccc32)C1c1ccccc1OC (centres undefined) |
| 1200 s | Cc1cccc(S(=O)(=O)N2CCCC2c2nc(-c3cccc(C(F)(F)F)c3)no2)c1 (centres undefined) |
| 914 s | O=c1c2ccccc2ncn1Cc1noc(-c2cccc(Br)c2)n1 |
| 866 s | O=c1n(Cc2ccccc2Cl)nc2ccc(S(=O)(=O)N3CCCC3)cn12 |
| 699 s | O=C(NCc1ccco1)C1CCN(C(=O)c2ncn3c2COC(c2ccccc2)C3)CC1 (centres undefined) |
| 1150 s | CCN(CC)C(=O)Cn1nc(-c2nc(-c3ccc(C)cc3)no2)c2ccccc21 |
| 622 s | CC(O)c1nc2c(c(=O)n(C)c(=O)n2C)n1C (centres undefined) |
| 676 s | COC1CCOC2(CCN(C(=O)c3ccsc3)CC2)C1 (centres undefined) |
| 804 s | CC(C)(NS(=O)(=O)c1ccc(Oc2ccc(F)cc2)cc1)C(=O)NO |
| 683 s | Cc1[nH]c2ccccc2c1S(=O)(=O)CCNC(=O)Nc1cccs1 |
| 1140 s | COc1cc(-c2noc(Cn3ncn4nc(-c5cc(C)ccc5C)cc4c3=O)n2)cc(OC)c1OC |
| 1070 s | CCOc1ccc(-c2noc(Cn3ncn4nc(-c5ccc(F)cc5)cc4c3=O)n2)cc1OC |
| 1130 s | Cc1ccc(N2C(=O)C3N=NN(Cc4nc(-c5ccc(Br)cc5)no4)C3C2=O)cc1C (centres undefined) |

| RP-LC retention time | Structure (SMILES) |
| --- | --- |
| 849 s | Cc1ccc(Cl)cc1NC(=O)CSc1nc(N2CCCCC2)nc2ccccc12 |
| 635 s | CCOc1ccc(CNC(=O)C2CCN(c3cncnc3N3CCOCC3)CC2)cc1 |
| 710 s | Cc1cc(C(=O)NC2CCCC2)c2cc(F)ccc2n1 |
| 734 s | Cc1ccc(NC(=O)C2CCN(c3cc(N4CCSCC4)ncn3)CC2)cc1F |
| 947 s | Cc1ccc(NC(=O)N(C)CCc2noc(COc3ccccc3)n2)cc1C |
| 1250 s | Cc1ccc(-c2csc(Cc3nc(-c4ccccc4)no3)n2)cc1 |
| 613 s | CC1=C(C(=O)Nc2ccccc2F)C2(CCN(C(C)C)CC2)OC1=O |
| 541 s | COc1ccc(C(O)CN2CCN(C3CCCCC3)CC2)cc1OC (centres undefined) |
| 561 s | Cc1ccnc(Nc2nc(C)c(C(=O)N3CCC(C(N)=O)(N4CCCCC4)CC3)s2)c1 |
| 906 s | COc1ccc(OC)c(S(=O)(=O)N2C[C@@H](F)C[C@H]2C(=O)N2CCOCC2)c1 |
| 697 s | Cc1cc(=O)n(CC(=O)Nc2ccc(C)c(C)c2)c(N2CCOCC2)n1 |
| 718 s | CCOC(=O)COC(=O)c1cn(-c2ccc(C)cc2)c(=O)c2ccccc12 |
| 566 s | O=C(N[C@@H]1CN(C2CCOCC2)C[C@H]1CO)c1ccc2c(c1)OCO2 |
| 715 s | Cc1nc(-c2cc3ccccc3nc2N2CCN(Cc3ccccc3)CC2)no1 |
| 829 s | Cc1nn(C(C)C)c(C)c1S(=O)(=O)N1CCN(C(=O)CCc2c[nH]c3ccccc23)CC1 |
| 946 s | Cc1nn(C(C)C(=O)NC2CCCCC2)c(=O)c2c(C)n(-c3ccccc3)nc12 (centres undefined) |
| 925 s | N#Cc1ccc(C(=O)N2CCCC2c2nc(-c3ccccc3)no2)cc1 (centres undefined) |
| 713 s | CCCNC(=O)c1ccc2c(c1)CCCN2S(C)(=O)=O |
| 847 s | O=C(Cc1cccc(F)c1)N1CCN(C(=O)c2cc(-c3cccnc3)n[nH]2)CC1 |
| 1030 s | Cc1cccc(CN2C(=O)CN(S(=O)(=O)c3ccccc3)CC2(C)C(=O)NCCC(C)C)c1 (centres undefined) |
| 839 s | Cc1cccc(NC(=O)NCCc2cn(CC(C)C)c3ncccc23)c1C |
| 916 s | COC(=O)c1cccc(C(=O)N2CCN(c3cccc(C)c3C)CC2)n1 |

| Structure (SMILES) | RP-LC retention time |
| --- | --- |
| CSc1ccc(CNC(=O)CN2CC=C(c3cnn(-c4ccccc4)c3)CC2)cc1 | 720 s |

Source: the METLIN SMRT retention time set (Domingo-Almenara et al. 2019)
